{"source": "paper PMC8571282", "about": "(Nature Communications, 2021)", "key": {"[1]": {"assay": "in vitro", "conditions": "human, % cell viability, M6 HAE, 72 h"}, "[2]": {"tested_on": "“F3” primary HAE cells", "assay": "Cytotoxicity assay (PrestoBlue), “F3” HAE", "conditions": "F3 HAE, 72 h"}, "[3]": {"tested_on": "SARS-CoV-2-Nluc (WA1/2020-nano luciferase)", "assay": "microbe, parasite or virus in culture", "type": "cell-based"}, "[4]": {"assay": "in vitro", "conditions": "hamster"}, "[5]": {"conditions": "female, ferret, in vivo, iv"}, "[6]": {"assay": "in vitro", "conditions": "human, % cell viability"}, "[7]": {"assay": "in vitro", "conditions": "human, 72 h"}, "[8]": {"tested_on": "“F2” primary HAE cells", "assay": "Cytotoxicity assay (PrestoBlue), “F2” HAE", "conditions": "72 h; for % cell viability: F2 HAE"}, "[9]": {"assay": "in vitro", "conditions": "African green monkey"}, "[10]": {"assay": "in vitro", "conditions": "human"}, "[11]": {"assay": "in vitro", "conditions": "female, human, % cell viability, DF2 HAE, 33.333 µM, 72 h"}, "[12]": {"tested_on": "HCT-8 cells", "assay": "Cytotoxicity assay (PrestoBlue), HCT-8", "conditions": "HCT-8, 72 h"}, "[13]": {"tested_on": "HEp-2 cells", "assay": "Cytotoxicity assay (PrestoBlue), HEp-2", "conditions": "72 h"}, "[14]": {"assay": "in vitro", "conditions": "human, % cell viability, M2 HAE, 72 h"}, "[15]": {"assay": "in vitro", "conditions": "human, % cell viability", "remark": "listed apart in the source"}}, "note": "“And” between values parts separate entries of the source, which are not always exact repeats. Identical values can stand only once.", "data": [{"smiles": "CCC(CC)COC(=O)[C@H](C)N[P@](=O)(OC[C@H]1O[C@@](C#N)(c2ccc3c(N)ncnn23)[C@H](O)[C@@H]1O)Oc1ccccc1", "note": "[remdesivir]", "values": [{"measurement": "viability at 100 µM", "setting": "[1]; 100 µM", "value": 89, "unit": "%"}, {"measurement": "viability at 0.046 µM", "setting": "[1]; male, 0.046 µM", "value": 90, "unit": "%"}, {"measurement": "viability at 1.235 µM", "setting": "[1]; male, 1.235 µM", "value": 87, "unit": "%"}, {"measurement": "viability at 33.333 µM", "setting": "[1]; male, 33.333 µM", "value": 96, "unit": "%"}, {"measurement": "% cell viability", "setting": "[2]; 0.046 µM", "value": "76% and 79%"}, {"measurement": "% cell viability", "setting": "[2]; 33.333 µM", "value": "88% and 89%"}, {"measurement": "% cell viability", "setting": "[2]; 100 µM", "value": "52% and 54%"}, {"measurement": "A549-hACE2 SARS-CoV-2 Nluc (EC50 determination), normalized signal", "setting": "[3]; Conc 0.005 µM, replicate values of the experiments", "value": "78.71 and 115.29 and 114.83 and 141.39 and 91.95 and 93.98 and 92.17 and 82.76 and 114.48 and 78.49 and 78.52 and 118.54"}, {"measurement": "EC50", "setting": "[3]; Severe acute respiratory syndrome coronavirus 2, WA1/2020-nano luciferase, A549-ACE2, mean ± SD", "value": 0.08, "unit": "µM"}, {"measurement": "CC50", "setting": "[4]", "value": "> 100", "unit": "µM"}, {"measurement": "viability at 1.235 µM", "setting": "[4]; % cell viability, BHK-21, 1.235 µM, 72 h", "value": 87, "unit": "%"}, {"measurement": "viability at 3.704 µM", "setting": "[4]; % cell viability, BHK-21, 3.704 µM, 72 h", "value": 93, "unit": "%"}, {"measurement": "lung GS-443902", "setting": "[5]", "value": 1.28, "unit": "nmol/g"}, {"measurement": "lung total nuc", "setting": "[5]", "value": 2.96, "unit": "nmol/g"}, {"measurement": "viability at […]", "setting": "[6]", "value": 89, "unit": "%"}, {"measurement": "viability at 1.235 µM", "setting": "[6]; HEp-2, 1.235 µM, 72 h", "value": 83, "unit": "%"}, {"measurement": "viability at 33.333 µM", "setting": "[6]; HEp-2, 33.333 µM, 72 h", "value": 64, "unit": "%"}, {"measurement": "viability at 100 µM", "setting": "[6]; HEp-2, 100 µM, 72 h", "value": 31, "unit": "%"}, {"measurement": "viability at 0.046 µM", "setting": "[7]; female, % cell viability, F2 HAE, 0.046 µM", "value": 81, "unit": "%"}, {"measurement": "viability at 33.333 µM", "setting": "[7]; female, % cell viability, F2 HAE, 33.333 µM", "value": 72, "unit": "%"}, {"measurement": "viability at 100 µM", "setting": "[7]; % cell viability, F2 HAE, 100 µM", "value": 46, "unit": "%"}, {"measurement": "CC50", "setting": "[7]; CC50, “F2” HAE", "value": 85.5, "unit": "µM"}, {"measurement": "% cell viability", "setting": "[8]; 0.046 µM", "value": "85% and 82%"}, {"measurement": "% cell viability", "setting": "[8]; 33.333 µM", "value": "77% and 71%"}, {"measurement": "% cell viability", "setting": "[8]; 100 µM", "value": 47, "unit": "%"}, {"measurement": "CC50", "setting": "[8]; “F2” HAE", "value": 85.5, "unit": "µM"}, {"measurement": "CC50", "setting": "[9]", "value": "> 100", "unit": "µM"}, {"measurement": "viability at […]", "setting": "[9]; % cell viability", "value": 79, "unit": "%"}, {"measurement": "viability at 3.704 µM", "setting": "[9]; % cell viability, VeroE6, 3.704 µM, 72 h", "value": 92, "unit": "%"}, {"measurement": "viability at 0.046 µM", "setting": "[10]; % cell viability, HCT-8, 0.046 µM, 72 h", "value": 76, "unit": "%"}, {"measurement": "viability at 33.333 µM", "setting": "[10]; % cell viability, HCT-8, 33.333 µM, 72 h", "value": 51, "unit": "%"}, {"measurement": "viability at 100 µM", "setting": "[10]; % cell viability, HCT-8, 100 µM, 72 h", "value": 15, "unit": "%"}, {"measurement": "CC50", "setting": "[10]; CC50, HCT-8, 72 h", "value": 36.4, "unit": "µM"}, {"measurement": "viability at 33.333 µM", "setting": "[11]", "value": 86, "unit": "%"}, {"measurement": "CC50", "setting": "[12]", "value": 36.4, "unit": "µM"}, {"measurement": "% cell viability", "setting": "[13]; HEp-2, 0.046 µM, 0.046 µM", "value": "45% and 47% and 73%"}, {"measurement": "% cell viability", "setting": "[13]; HEp-2, 1.235 µM, 1.235 µM", "value": "86% and 94%"}, {"measurement": "% cell viability", "setting": "[13]; HEp-2, 3.704 µM, 3.704 µM", "value": 96, "unit": "%"}, {"measurement": "% cell viability", "setting": "[13]; HEp-2, 33.333 µM, 33.333 µM", "value": "51% and 66%"}, {"measurement": "% cell viability", "setting": "[13]; HEp-2, 100 µM, 100 µM", "value": 24, "unit": "%"}, {"measurement": "viability at 100 µM", "setting": "[14]; 100 µM", "value": 56, "unit": "%"}, {"measurement": "viability at 0.046 µM", "setting": "[14]; male, 0.046 µM", "value": 85, "unit": "%"}, {"measurement": "viability at […]", "setting": "[15]; female", "value": 91, "unit": "%"}, {"measurement": "viability at 0.046 µM", "setting": "[15]; female, F3 HAE, 0.046 µM, 72 h", "value": 75, "unit": "%"}, {"measurement": "viability at 33.333 µM", "setting": "[15]; female, F3 HAE, 33.333 µM, 72 h", "value": 84, "unit": "%"}, {"measurement": "viability at 100 µM", "setting": "[15]; F3 HAE, 100 µM, 72 h", "value": 51, "unit": "%"}]}]}
